Data: patent US20070259895A1, “MGluR5 modulators VI” (AstraZeneca AB, priority 2006, published 2007)

Key:
[1] = Determination of brain to plasma ratio in rat; type: in vivo, female Sprague Dawley rats; conditions: female, Sprague-Dawley, brain and plasma, read-out: Brain to Plasma Ratio of compound in Rat
Protocol: Brain to plasma ratios are estimated in female Sprague Dawley rats. The compound is dissolved in water or another appropriate vehicle. For determination of brain to plasma ratio the compound is administrated as a subcutaneous, or an intravenous bolus injection, or an intravenous infusion, or an oral administration. At a predetermined time point after the administration a blood sample is taken with cardiac puncture. The rat is terminated by cutting the heart open, and the brain is immediately retained. The blood samples are collected in heparinized tubes and centrifuged within 30 minutes, in order to separate the plasma from the blood cells. The plasma is transferred to 96-well plates and stored at −20° C. until analysis. The brains are divided in half, and each half is placed in a pre-tarred tube and stored at −20° C. until analysis. Prior to the analysis, the brain samples are thawed and 3 ml/g brain tissue of distilled water is added to the tubes. The brain samples are sonicated in an ice bath until the samples are homogenized. Both brain and plasma samples are precipitated with acetonitrile. After centrifugation, the supernatant is diluted with 0.2% formic acid. […] After reconstitution of the residuals the samples are ready for injection onto the HPLC column.

human mGluR5d = target: T1, human mGluR5d (Homo sapiens, UniProt P41594); test: FLIPR assay, mobilization of intracellular calcium in cells expressing mGluR5d; type: cell-based
T1 construct: expressed in transfected cells; The IP3 assay uses GHEK cells stably expressing human mGluR5d
T1 sequence (P41594 21-942 isoform P41594-3 limits assumed): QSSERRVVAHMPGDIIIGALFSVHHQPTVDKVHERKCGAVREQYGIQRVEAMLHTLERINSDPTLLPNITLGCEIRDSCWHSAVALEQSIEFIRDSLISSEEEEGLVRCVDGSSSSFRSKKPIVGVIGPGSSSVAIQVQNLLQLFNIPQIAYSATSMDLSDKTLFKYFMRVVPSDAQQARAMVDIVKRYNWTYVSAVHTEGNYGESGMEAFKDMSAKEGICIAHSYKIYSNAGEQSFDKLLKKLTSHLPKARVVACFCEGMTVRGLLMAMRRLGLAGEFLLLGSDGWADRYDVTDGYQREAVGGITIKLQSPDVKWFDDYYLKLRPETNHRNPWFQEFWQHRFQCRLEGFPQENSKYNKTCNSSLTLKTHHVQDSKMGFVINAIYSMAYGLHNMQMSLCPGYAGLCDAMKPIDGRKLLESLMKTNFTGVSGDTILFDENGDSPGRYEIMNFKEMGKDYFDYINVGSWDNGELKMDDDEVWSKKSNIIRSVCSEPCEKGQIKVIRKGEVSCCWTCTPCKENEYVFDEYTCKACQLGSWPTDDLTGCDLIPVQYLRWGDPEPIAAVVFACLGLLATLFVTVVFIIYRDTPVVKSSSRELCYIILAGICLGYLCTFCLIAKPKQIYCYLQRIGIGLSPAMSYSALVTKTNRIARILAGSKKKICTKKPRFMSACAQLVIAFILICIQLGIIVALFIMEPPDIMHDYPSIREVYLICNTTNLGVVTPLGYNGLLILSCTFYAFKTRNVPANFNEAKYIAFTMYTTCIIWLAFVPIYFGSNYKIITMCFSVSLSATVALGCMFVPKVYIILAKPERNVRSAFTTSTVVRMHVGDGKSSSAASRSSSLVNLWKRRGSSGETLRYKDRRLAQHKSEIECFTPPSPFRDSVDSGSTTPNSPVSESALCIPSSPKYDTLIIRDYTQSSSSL
Text: The properties of the compounds of the invention can be analyzed using standard assays for pharmacological activity. Examples of glutamate receptor assays are well known in the art as described in for example Aramori et al, Neuron 8:757 (1992), Tanabe et al., Neuron 8:169 (1992), Miller et al., J. Neuroscience 15: 6103 (1995), Balazs, et al., J. Neurochemistry 69:151 (1997). The methodology described in these publications is incorporated herein by reference. Conveniently, the compounds of the invention can be studied by means of an assay (FLIPR) that measures the mobilization of intracellular calcium, [Ca^2+]i in cells expressing mGluR5 or another assay (IP3) that measures inositol phosphate turnover.
Cells expressing human mGluR5d as described in WO97/05252 are seeded at a density of 100,000 cells per well on collagen coated clear bottom 96-well plates with black sides and experiments are done 24 h following seeding. […] The fluorescence signal is sampled 50 times at 1 second intervals followed by 3 samples at 5 second intervals immediately after each of the two additions. Responses are measured as the difference between the peak height of the response to agonist, less the background fluorescence within the sample period. […]

Kp [1]: 0.36
IC50 (human mGluR5d): 51 nM
Structure (SMILES): COc1cc(-c2nnc3n2CCCN3Cc2cc(-c3cccc(Cl)c3)on2)ccn1 [Example 11.2, 8-{[5-(3-Chlorophenyl)isoxazol-3-yl]methyl}-3-(2-methoxypyridin-4-yl)-5,6,7,8-tetrahydro[1,2,4]triazolo[4,3-a]pyrimidine]
